The assay deals with human adenosine A2b receptor (Homo sapiens (Human), UniProt P29275). The experiment in a line: Cellular in vitro reporter gene test for A2b receptor activity (CHO-K1, CRE-luciferase, NECA stimulation). To be noted: recombinant CHO-K1 cell line, CRE-luciferase reporter, antagonism of EC50 concentration of NECA; in some cases means of several determinations, rounded to two significant figures; read-out: A2b receptor IC50. It is filed as cell-based. In a few lines: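 CHO-K1 cells with CRE-driven luciferase; antagonists co-incubated with NECA at its EC50, determined in a pre-experiment on each test day. Luciferase read by luminescence 3 h after NECA addition.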
human adenosine A2b receptor, sequence (P29275 whole entry): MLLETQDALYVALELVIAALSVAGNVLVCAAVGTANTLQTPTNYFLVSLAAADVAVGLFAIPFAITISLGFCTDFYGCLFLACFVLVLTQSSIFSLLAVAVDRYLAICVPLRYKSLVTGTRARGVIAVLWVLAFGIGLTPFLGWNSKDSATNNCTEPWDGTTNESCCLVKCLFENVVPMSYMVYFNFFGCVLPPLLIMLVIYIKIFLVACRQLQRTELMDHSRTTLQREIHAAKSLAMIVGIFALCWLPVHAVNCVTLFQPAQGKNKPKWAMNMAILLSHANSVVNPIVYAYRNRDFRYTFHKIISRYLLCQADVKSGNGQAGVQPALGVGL
For orientation: Reporter assays use an easily measured gene product as a stand-in for the process of interest.

pIC50: −log10 of the molar value.

On to `COCCn1c(=O)c2c(C)c(CN3CCNC3=O)sc2n(CC2CCCO2)c1=O` (single isomer, unassigned) [Example 324, 3-(2-Methoxyethyl)-5-methyl-6-[(2-oxoimidazolidin-1-yl)methyl]-1-(tetrahydrofuran-2-ylmethyl)thieno[2,3-d]pyrimidine-2,4(1H,3H)-dione], for which the pIC50 was 6.96. To `COC(=O)N=C1NCCN1Cc1sc2c(c1C)c(=O)n(CC(C)(C)C)c(=O)n2CC1CCCO1` (racemic) [Example 463, Methyl [1-{[3-(2,2-dimethylpropyl)-5-methyl-2,4-dioxo-1-(tetrahydrofuran-2-ylmethyl)-1,2,3,4-tetrahydrothieno[2,3-d]pyrimidin-6-yl]methyl}imidazolidin-2-ylidene]carbamate] belongs 8.00; to `COC(=O)N=C1NCCN1Cc1sc2c(c1C)c(=O)n(CC(C)(C)C)c(=O)n2CC1CCCO1` (single isomer, unassigned) [Example 464, Methyl [1-{[3-(2,2-dimethylpropyl)-5-methyl-2,4-dioxo-1-(tetrahydrofuran-2-ylmethyl)-1,2,3,4-tetrahydrothieno[2,3-d]pyrimidin-6-yl]methyl}imidazolidin-2-ylidene]carbamate], 8.00; to `CCn1c(=O)c2c(C)c(CN3CCNC3=O)sc2n(CCC(C)C)c1=O` [Example 79, 3-Ethyl-5-methyl-1-(3-methylbutyl)-6-[(2-oxoimidazolidin-1-yl)methyl]thieno[2,3-d]pyrimidine-2,4(1H,3H)-dione], 8.00. To `COCCn1c(=O)c2c(C)c(CN3CCNC3=NC#N)sc2n(CC2CCCO2)c1=O` (single isomer, unassigned) [Example 369, [1-{[3-(2-Methoxyethyl)-5-methyl-2,4-dioxo-1-(tetrahydrofuran-2-ylmethyl)-1,2,3,4-tetrahydrothieno[2,3-d]pyrimidin-6-yl]methyl}imidazolidin-2-ylidene]cyanamide] belongs 7.48; to `C=CCn1cnn(Cc2sc3c(c2C)c(=O)n(CC)c(=O)n3CCOC(F)(F)F)c1=O` [Example 111, 6-[(4-Allyl-5-oxo-4,5-dihydro-1H-1,2,4-triazol-1-yl)methyl]-3-ethyl-5-methyl-1-[2-(trifluoromethoxy)ethyl]thieno[2,3-d]pyrimidine-2,4(1H,3H)-dione], 7.68. The figure for `COCCn1c(=O)n(CC(F)F)c(=O)c2c(C)c(CN3CCNC3=O)sc21` [Example 96, 3-(2,2-Difluoroethyl)-1-(2-methoxyethyl)-5-methyl-6-[(2-oxoimidazolidin-1-yl)methyl]thieno[2,3-d]pyrimidine-2,4(1H,3H)-dione] is 8.03; for `COCCn1c(=O)n(CCCF)c(=O)c2c(C)c(CN3CCNC3=O)sc21` [Example 224, 3-(3-Fluoropropyl)-1-(2-methoxyethyl)-5-methyl-6-[(2-oxoimidazolidin-1-yl)methyl]thieno[2,3-d]pyrimidine-2,4(1H,3H)-dione] it is 7.51. Take `COCCn1c(=O)c2c(C)c(CN3CCNC(=O)C3=O)sc2n(CC2CCO2)c1=O` (single isomer, unassigned) [Example 402, 6-[(2,3-Dioxopiperazin-1-yl)methyl]-3-(2-methoxyethyl)-5-methyl-1-(oxetan-2-ylmethyl)thieno[2,3-d]pyrimidine-2,4(1H,3H)-dione]: the pIC50 is 7.00. The figure for `Cc1c(CN2CCNC2=S)sc2c1c(=O)n(CC(C)C)c(=O)n2CC(F)F` [Example 143] is 8.52; for `CCn1c(=O)c2c(C)c(CN3C(=O)OCC3(C)C)sc2n(CCC(F)(F)F)c1=O` [Example 24, 6-[(4,4-Dimethyl-2-oxo-1,3-oxazolidin-3-yl)methyl]-3-ethyl-5-methyl-1-(3,3,3-trifluoropropyl)thieno[2,3-d]pyrimidine-2,4(1H,3H)-dione] it is 8.06.

Turning to `Cc1c(CN2CCN(C)C2=O)sc2c1c(=O)n(CC(F)(F)F)c(=O)n2CCC(F)(F)F` [Example 336, 5-Methyl-6-[(3-methyl-2-oxoimidazolidin-1-yl)methyl]-3-(2,2,2-trifluoroethyl)-1-(3,3,3-trifluoropropyl)thieno[2,3-d]pyrimidine-2,4(1H,3H)-dione], the negative logarithm of the IC50 (pIC50) is 8.06. Regarding `CCn1c(=O)c2c(C)c(CN3CCNC3=O)sc2n(CCOC2CCCC2)c1=O` [Example 308, 1-[2-(Cyclopentyloxy)ethyl]-3-ethyl-5-methyl-6-[(2-oxoimidazolidin-1-yl)methyl]thieno[2,3-d]pyrimidine-2,4(1H,3H)-dione], the negative-log IC50 (pIC50) was 6.85. The figure for `CCn1c(=O)c2c(C)c(CN3CCNC3=O)sc2n(CCOC(C)C)c1=O` [Example 61, 3-Ethyl-1-(2-isopropoxyethyl)-5-methyl-6-[(2-oxoimidazolidin-1-yl)methyl]thieno[2,3-d]pyrimidine-2,4(1H,3H)-dione] is 7.28; for `COC(=O)N=C1NCCN1Cc1sc2c(c1C)c(=O)n(CC(F)(F)F)c(=O)n2CCC(F)(F)F` [Example 381, Methyl [1-{[5-methyl-2,4-dioxo-3-(2,2,2-trifluoroethyl)-1-(3,3,3-trifluoropropyl)-1,2,3,4-tetrahydrothieno[2,3-d]pyrimidin-6-yl]methyl}imidazolidin-2-ylidene]carbamate] it is 8.39; for `COCCn1c(=O)n(C(C)C)c(=O)c2c(C)c(CN3CCNC3=NC#N)sc21` [Example 263, [1-{[3-Isoprpy-1-(2-methoxyethyl)-5-methyl-2,4-dioxo-1,2,3,4-tetrahydrothieno[2,3-d]pyrimidin-6-yl]methyl}imidazolidin-2-ylidene]cyanamide] it is 8.28. Turning to `Cc1c(CN2CCNC2=S)sc2c1c(=O)n(CC(C)C)c(=O)n2CC1CCO1` (single isomer, unassigned) [Example 148, 3-Isobutyl-5-methyl-1-(oxetan-2-ylmethyl)-6-[(2-thioxoimidazolidin-1-yl)methyl]thieno[2,3-d]pyrimidine-2,4(1H,3H)-dione], the negative-log IC50 (pIC50) was 8.39. The figure for `CCn1c(=O)c2c(C)c(CN3CCNC3=NC#N)sc2n(CC2CCO2)c1=O` (single isomer, unassigned) [Example 257, [1-{[3-Ethyl-5-methyl-1-(oxetan-2-ylmethyl)-2,4-dioxo-1,2,3,4-tetrahydrothieno[2,3-d]pyrimidin-6-yl]methyl}imidazolidin-2-ylidene]cyanamide] is 8.15. With `COCCn1c(=O)n(C(C)COC)c(=O)c2c(C)c(CN3CCNC3=O)sc21` (racemic) [Example 329, 1-(2-Methoxyethyl)-3-(1-methoxypropan-2-yl)-5-methyl-6-[(2-oxoimidazolidin-1-yl)methyl]thieno[2,3-d]pyrimidine-2,4(1H,3H)-dione], the pIC50 is 6.05.

Regarding `Cc1c(CN2CCNC2=O)sc2c1c(=O)n(CC(F)F)c(=O)n2CCCF` [Example 95, 3-(2,2-Difluoroethyl)-1-(3-fluoropropyl)-5-methyl-6-[(2-oxoimidazolidin-1-yl)methyl]thieno[2,3-d]pyrimidine-2,4(1H,3H)-dione], the pIC50 was 7.96. As for `Cc1c(CN2CCN(C(C)C)C(=O)C2=O)sc2c1c(=O)n(CC(C)C)c(=O)n2CCCF` [Example 496, 1-(3-Fluoropropyl)-3-isobutyl-6-[(4-isopropyl-2.3-dioxopiperazin-1-yl)methyl]-5-methylthieno[2,3-d]pyrimidine-2,4(1H,3H)-dione], the pIC50 was 6.92.

For orientation: pIC50 means −log10 of the IC50, conventionally taken in molar units.
